Test results taken from patent US20180155344A1, “TRICYCLIC PIPERIDINE COMPOUNDS” (ACTELION PHARMACEUTICALS LTD, priority 2015, published 2018).

Key:
5HT [1] = conditions: mice, cited from earlier work
5HT [2] = conditions: phase IIA study, qid; cited from earlier work
5HT [3] = conditions: cited from earlier work
5HT [4] = conditions: 200 mg/kg i.p. qid for 3 days, cited from earlier work
cholangiocarcinoma = conditions: xenograft model of cholangiocarcinoma; cited from earlier work
human TPH1 = target: T1, human TPH1 (Homo sapiens, UniProt P17752); assay: biochemical
T1 sequence (P17752 1-444): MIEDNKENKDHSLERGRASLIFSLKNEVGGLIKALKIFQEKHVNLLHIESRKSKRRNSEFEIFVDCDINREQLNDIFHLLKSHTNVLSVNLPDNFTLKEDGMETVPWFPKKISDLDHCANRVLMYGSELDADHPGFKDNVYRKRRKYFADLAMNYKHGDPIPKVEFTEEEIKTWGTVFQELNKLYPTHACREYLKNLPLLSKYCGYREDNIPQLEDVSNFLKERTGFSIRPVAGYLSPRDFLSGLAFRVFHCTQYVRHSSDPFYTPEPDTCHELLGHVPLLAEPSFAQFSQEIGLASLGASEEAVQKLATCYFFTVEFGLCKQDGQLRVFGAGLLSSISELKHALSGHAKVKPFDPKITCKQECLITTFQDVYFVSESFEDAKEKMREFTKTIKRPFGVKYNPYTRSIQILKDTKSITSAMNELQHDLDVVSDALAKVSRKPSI
Procedure, shortened: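 Inhibition is derived from 5-hydroxy-L-tryptophan fluorescence (540 nm emission, 300 nm excitation) after perchloric acid stop, relative to DMSO vehicle. Recombinant full-length human enzyme (40-80 nM) reacts with 40 μM tryptophan plus 100 μM methyltetrahydropterin, pH 7.6 Tris/DTT/catalase, 15° C, 60 min.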

IC50 (human TPH1) [nM]	Compound	other results
–	Nc1nc(OC(c2ccc(-c3cccc(F)c3)cc2)C(F)(F)F)cc(-c2ccc(C[C@H](N)C(=O)O)cc2)n1 (stereo partly shown) [LP533401]	brain 5HT concentrations (5HT [1]; brain): without effecting brain concentrations; gut 5HT (5HT [1]; gut): lower gut 5HT
–	COc1cccc(-c2ccc([C@@H](Oc3cc(-c4ccc(C[C@H](N)C(=O)O)cc4)nc(N)n3)C(F)(F)F)cc2)c1 [LX1031, (S)-2-Amino-3-(4-{2-amino-6-[(R)-2,2,2-trifluoro-1-(3′-methoxy-biphenyl-4-yl)-ethoxy]-pyrimidin-4-yl}-phenyl)-propionic acid]	blood 5HT (5HT [2]): did not affect blood 5HT; urinary 5HIAA reduction (5HT [2]): up to 30%; brain 5HT (5HT [3]; brain): no effect on brain 5HT; 5HT in the colon (5HT [3]; colon): only a minor reduction; 5HT in the jejunum (5HT [3]; jejunum): lowers 5HT in the jejunum
–	N[C@@H](Cc1ccc(Cl)cc1)C(=O)O (racemic) [PCA, p-chlorophenylalanine]	5HT in the brain (5HT [4]; brain): ~20 % original; 5HT in the gut (5HT [4]; gut): ~50 % original; tumor volume (cholangiocarcinoma): dramatic reduction in tumor volume
6	O=C(COc1ccc(N2CCOCC2)nc1Cl)N1CCc2nc3ccccn3c2C1c1ccc(C2CC2)cc1F (stereo not shown) [Example 1.5.2, 2-((2-chloro-6-morpholinopyridin-3-yl)oxy)-1-(1-(4-cyclopropyl-2-fluorophenyl)-3,4-dihydroimidazo[1,2-a:5,4-c′]dipyridin-2(1H)-yl)ethan-1-one]	–
67	COc1ncc(C2c3c(nc4cc(C(F)(F)F)ccn34)CCN2C(=O)COc2ccc3ccccc3c2)cn1 (stereo not shown) [Example 3.55.1, 1-(1-(2-methoxypyrimidin-5-yl)-7-(trifluoromethyl)-3,4-dihydroimidazo[1,2-a:5,4-c′]dipyridin-2(1H)-yl)-2-(naphthalen-2-yloxy)ethan-1-one]	–
84	COc1ccc(C2c3c(nc4cc(C(F)(F)F)ccn34)CCN2C(=O)COc2ccc(CN3CCOCC3)nc2Cl)cc1OC (stereo not shown) [Example 3.1.27, 2-((2-chloro-6-(morpholinomethyl)pyridin-3-yl)oxy)-1-(1-(3,4-dimethoxyphenyl)-7-(trifluoromethyl)-3,4-dihydroimidazo[1,2-a:5,4-c′]dipyridin-2(1H)-yl)ethan-1-one]	–
80	O=C(NC1CC1)c1ccc(OCC(=O)N2CCc3nc4ccccn4c3C2c2ccc(OCCO)cc2F)c(Cl)n1 (stereo not shown) [Example 1.22.1, 6-chloro-N-cyclopropyl-5-(2-(1-(2-fluoro-4-(2-hydroxyethoxy)phenyl)-3,4-dihydroimidazo[1,2-a:5,4-c′]dipyridin-2(1H)-yl)-2-oxoethoxy)picolinamide]	–
47	O=C(COc1ccc2ccccc2c1)N1CCc2nc3cc(C(F)(F)F)ccn3c2C1c1cc2cccnc2s1 (stereo not shown) [Example 3.49.1, 2-(naphthalen-2-yloxy)-1-(1-(thieno[2,3-b]pyridin-2-yl)-7-(trifluoromethyl)-3,4-dihydroimidazo[1,2-a:5,4-c′]dipyridin-2(1H)-yl)ethan-1-one]	–
468	Cc1ccc(C2c3c(nc4cc(C(F)(F)F)ccn34)CCN2C(=O)COc2cc(-c3ccccc3)nn2C)nc1 (stereo not shown) [Example 3.50.3, 2-((1-methyl-3-phenyl-1H-pyrazol-5-yl)oxy)-1-(1-(5-methylpyridin-2-yl)-7-(trifluoromethyl)-3,4-dihydroimidazo[1,2-a:5,4-c′]dipyridin-2(1H)-yl)ethan-1-one]	–
38	COc1ccc(C2c3c(nc4ccc(C)cn34)CCN2C(=O)COc2ccc3ccccc3c2)cc1OC (stereo not shown) [Example 7.1.2, 1-(1-(3,4-dimethoxyphenyl)-8-methyl-3,4-dihydroimidazo[1,2-a:5,4-c′]dipyridin-2(1H)-yl)-2-(naphthalen-2-yloxy)ethan-1-one]	–
239	Cc1ccc(C2c3c(nc4cc(C(F)(F)F)ccn34)CCN2C(=O)COc2cccnc2Cl)cc1C (stereo not shown) [Example 3.10.3, 2-((2-chloropyridin-3-yl)oxy)-1-(1-(3,4-dimethylphenyl)-7-(trifluoromethyl)-3,4-dihydroimidazo[1,2-a:5,4-c′]dipyridin-2(1H)-yl)ethan-1-one]	–
117	COc1ccc(C2c3c(nc4cc(C(F)(F)F)ccn34)CCN2C(=O)COc2ccc3c(c2C)CCN(C)C3)c(F)c1 (stereo not shown) [Example 3.3.7, 2-((2,5-dimethyl-1,2,3,4-tetrahydroisoquinolin-6-yl)oxy)-1-(1-(2-fluoro-4-methoxyphenyl)-7-(trifluoromethyl)-3,4-dihydroimidazo[1,2-a:5,4-c′]dipyridin-2(1H)-yl)ethan-1-one]	–
364	CS(=O)(=O)Nc1ccc(OCC(=O)N2CCc3nc4ccccn4c3C2c2ccc(Cl)cc2F)c(C2CC2)n1 (stereo not shown) [Example 1.4.9, N-(5-(2-(1-(4-chloro-2-fluorophenyl)-3,4-dihydroimidazo[1,2-a:5,4-c′]dipyridin-2(1H)-yl)-2-oxoethoxy)-6-cyclopropylpyridin-2-yl)methanesulfonamide]	–
5	O=C(COc1ccc(N2CCOCC2)nc1Cl)N1CCc2nc3cc(C(F)(F)F)ccn3c2C1c1ccc(Cl)cc1F (stereo not shown) [Example 3.4.6, 1-(1-(4-chloro-2-fluorophenyl)-7-(trifluoromethyl)-3,4-dihydroimidazo[1,2-a:5,4-c′]dipyridin-2(1H)-yl)-2-((2-chloro-6-morpholinopyridin-3-yl)oxy)ethan-1-one]	–
110	Cc1cc(C2c3c(nc4cc(C(F)(F)F)ccn34)CCN2C(=O)COc2ccc(CN3CCOCC3)cc2Cl)ccc1F (stereo not shown) [Example 3.33.2, 2-(2-chloro-4-(morpholinomethyl)phenoxy)-1-(1-(4-fluoro-3-methylphenyl)-7-(trifluoromethyl)-3,4-dihydroimidazo[1,2-a:5,4-c′]dipyridin-2(1H)-yl)ethan-1-one]	–
214	CS(=O)(=O)Nc1ccc(OCC(=O)N2CCc3nc4cnccn4c3C2c2ccc(Cl)cc2F)c(Cl)n1 (stereo not shown) [Example 17.2.1, N-(6-chloro-5-(2-(1-(4-chloro-2-fluorophenyl)-3,4-dihydropyrido[4′,3′:4,5]imidazo[1,2-a]pyrazin-2(1H)-yl)-2-oxoethoxy)pyridin-2-yl)methanesulfonamide]	–
21	CCc1cc(N2CCN(C)CC2)ccc1OCC(=O)N1CCc2nc3cc(C(F)(F)F)ccn3c2C1c1ccc(OC)c(OC)c1 (stereo not shown) [Example 3.1.32, 1-(1-(3,4-dimethoxyphenyl)-7-(trifluoromethyl)-3,4-dihydroimidazo[1,2-a:5,4-c′]dipyridin-2(1H)-yl)-2-(2-ethyl-4-(4-methylpiperazin-1-yl)phenoxy)ethan-1-one]	–
57	O=C(COc1ccc2ccccc2c1)N1CCc2nc3cc(C(F)(F)F)ccn3c2C1c1ccc(Cl)nc1 (stereo not shown) [Example 3.37.2, 1-(1-(6-chloropyridin-3-yl)-7-(trifluoromethyl)-3,4-dihydroimidazo[1,2-a:5,4-c′]dipyridin-2(1H)-yl)-2-(naphthalen-2-yloxy)ethan-1-one]	–
16	CCc1cc2nc3c(n2cc1C)C(c1ccc(OC)c(OC)c1)N(C(=O)COc1ccc(Cl)cc1Cl)CC3 (stereo not shown) [Example 6.1.1, 2-(2,4-dichlorophenoxy)-1-(1-(3,4-dimethoxyphenyl)-7-ethyl-8-methyl-3,4-dihydroimidazo[1,2-a:5,4-c′]dipyridin-2(1H)-yl)ethan-1-one]	–
202	COc1ccc(C2c3c(nc4cc(C(F)(F)F)ccn34)CCN2C(=O)COc2cc(C(F)(F)F)ccc2Cl)cc1OC (stereo not shown) [Example 3.1.4]	–
85	CCc1c(OCC(=O)N2CCc3nc4cc(C(F)(F)F)ccn4c3C2c2ccc(C3CC3)cc2F)ccc(C)[n+]1[O-] (stereo not shown) [Example 3.5.3, 1-(1-(4-cyclopropyl-2-fluorophenyl)-7-(trifluoromethyl)-3,4-dihydroimidazo[1,2-a:5,4-c′]dipyridin-2(1H)-yl)-2-((2-ethyl-6-methyl-1-(I1-oxidanyl)-1I4-pyridin-3-yl)oxy)ethan-1-one]	–
